Drawing on PubChem BioAssay (NCI), this text covers GI50 and TGI for eight compounds.

Where “and” joins values, the source holds several entries; their conditions need not be identical. Equal values may be shown once.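 1) Cells in 96-well plates. 2) Compound, 48 h, 5 concentrations. 3) Linear interpolation between surrounding doses. 4) Unreached endpoint = highest concentration. At the GI50, growth is halved. TGI is the concentration that stops growth completely.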 Some results are limits rather than exact numbers.

Among the test systems are RXF 393 renal; NCI-H226 lung; LOX IMVI melanoma; SF-539 CNS; UACC-257 melanoma; MALME-3M melanoma; NCI-H23 lung; HOP-92 NSCLC; SW-620 colon; NCI-H460 lung.
Holding throughout (test): DTP human tumour cell line panel, 48 h

The GI50 is the concentration that inhibits growth by half. In general, TGI refers to the concentration at which net growth stops. A lower TGI goes with more potent growth arrest. As for `CC(C)C[C@H](NC(=O)[C@H](Cc1cccc2ccccc12)NS(=O)(=O)c1cccc2cccnc12)B(O)O`, the 50% growth inhibitory concentration (GI50) with RXF 393 renal is 0.00919 µM; in the test on LOX IMVI melanoma, 0.00137 µM; with SF-539 CNS, 0.000193 µM; in the test on MALME-3M melanoma, 0.000588 µM; in the test on NCI-H23 lung, 0.00612 µM; with HOP-92 NSCLC, 0.0299 µM. The concentration for 50% growth inhibition (GI50) was 0.0015 µM in the test on SW-620 colon and 0.0618 µM in the test on NCI-H460 lung. Further, the total growth inhibition concentration (TGI) in the test with RXF 393 renal was 0.0273 µM and < 0.0237 µM; with NCI-H226 lung, 0.000542 µM; with LOX IMVI melanoma, 0.0226 µM and < 0.0199 µM; in the test with UACC-257 melanoma, 0.029 µM and 0.0357 µM; in the test with MALME-3M melanoma, 0.0175 µM and 0.0208 µM; with NCI-H23 lung, 0.132 µM and 0.199 µM. Further, the total growth inhibition concentration (TGI) was 0.0547 µM and 0.0938 µM with HOP-92 NSCLC; 0.0223 µM in the test on SW-620 colon; 1.35 µM with NCI-H460 lung.
As to `O=C(COc1cccc(/C=C2\Oc3ccc4ccccc4c3C2=O)c1)c1ccc(Cl)cc1`, the GI50 was 25 µM with RXF 393 renal; 70.6 µM with NCI-H226 lung; 8.7 µM in the test on LOX IMVI melanoma; > 100 µM in the test on SF-539 CNS; > 100 µM in the test on UACC-257 melanoma; 22.4 µM in the test on MALME-3M melanoma. Further, the GI50 with NCI-H23 lung is 30.5 µM; in the test with HOP-92 NSCLC, > 100 µM; with SW-620 colon, 11.7 µM; in the test on NCI-H460 lung it was > 100 µM. Also, the TGI in the test with RXF 393 renal was 61.6 µM; in the test with NCI-H226 lung, > 100 µM; in the test with LOX IMVI melanoma, 21.9 µM; with SF-539 CNS, > 100 µM; with UACC-257 melanoma, > 100 µM; in the test with MALME-3M melanoma it was > 100 µM. In addition, the concentration for total growth inhibition (TGI) was > 100 µM with NCI-H23 lung, > 100 µM with HOP-92 NSCLC, 88.3 µM with SW-620 colon and > 100 µM in the test with NCI-H460 lung.
With `CCOc1nccc2c1nc(-c1nonc1N)n2CC`, the GI50 in the test with RXF 393 renal is > 25 µM; in the test on NCI-H226 lung it was > 23.1 µM; in the test with LOX IMVI melanoma, > 25 µM; in the test on SF-539 CNS it was > 25 µM; with UACC-257 melanoma, > 25 µM; in the test with MALME-3M melanoma, > 25 µM. Besides, the GI50 in the test with NCI-H23 lung was > 25 µM; with HOP-92 NSCLC it was 1.17 µM; in the test with SW-620 colon, > 25 µM; in the test on NCI-H460 lung, > 25 µM. Further, the TGI in the test on RXF 393 renal, in the test on NCI-H226 lung, with LOX IMVI melanoma, with SF-539 CNS, with UACC-257 melanoma and in the test with MALME-3M melanoma was > 25 µM in each case. Also, the TGI with NCI-H23 lung, in the test on HOP-92 NSCLC, with SW-620 colon and in the test with NCI-H460 lung was > 25 µM in each case.
As for `COc1nc2c(nc(N)n2C2OCC(O)C(O)C2O)c(=O)n1C` (configuration not stated), the TGI in the test with RXF 393 renal, in the test on NCI-H226 lung, in the test on LOX IMVI melanoma, with SF-539 CNS, in the test on UACC-257 melanoma and in the test on MALME-3M melanoma was > 100 µM each time. The total growth inhibition concentration (TGI) in the test on NCI-H23 lung, in the test with HOP-92 NSCLC, in the test on SW-620 colon and in the test on NCI-H460 lung was > 100 µM throughout.
On to `CC(C)C[C@H](NC(=O)CCn1ccc2ncccc2c1=O)B(O)O`, for which the GI50 in the test with RXF 393 renal is 3.54 µM; in the test with NCI-H226 lung, 2.22 µM; in the test on LOX IMVI melanoma, 4.53 µM; in the test with SF-539 CNS, 2.96 µM; with UACC-257 melanoma, 8.25 µM; in the test on MALME-3M melanoma, 5.2 µM. Besides, the GI50 in the test on NCI-H23 lung is 14.9 µM; with HOP-92 NSCLC, 14.5 µM; in the test with SW-620 colon it was 4.23 µM; in the test on NCI-H460 lung, 31.9 µM. Further, the concentration for total growth inhibition (TGI) in the test with RXF 393 renal was 15.2 µM; with NCI-H226 lung, 6.13 µM; in the test with LOX IMVI melanoma, 18.7 µM; with SF-539 CNS, 9.03 µM; with UACC-257 melanoma it was 44.1 µM; in the test with MALME-3M melanoma it was 48.9 µM. In addition, the TGI with NCI-H23 lung was > 100 µM; in the test on HOP-92 NSCLC, 60.3 µM; in the test with SW-620 colon it was > 45.9 µM; in the test on NCI-H460 lung, > 100 µM.
With `COc1cc(F)c(/C=C/c2cc(/C=C/c3cc(OC)c(OC)cc3F)n(-c3cc(F)cc(F)c3)n2)cc1OC`, the GI50 with RXF 393 renal is 5.07 µM; in the test with NCI-H226 lung, 14.8 µM; with LOX IMVI melanoma, 2.62 µM; in the test on SF-539 CNS, 2.7 µM; in the test with UACC-257 melanoma, 1.48 µM; in the test on MALME-3M melanoma it was 1.78 µM. The GI50 in the test with NCI-H23 lung is 2.53 µM; in the test on HOP-92 NSCLC, 6 µM; with SW-620 colon it was 2.44 µM; in the test with NCI-H460 lung it was 3.43 µM. The concentration for total growth inhibition (TGI) in the test on RXF 393 renal is 18.4 µM; with NCI-H226 lung it was 43.6 µM; in the test with LOX IMVI melanoma, 8.3 µM; in the test on SF-539 CNS, 9.17 µM; in the test with UACC-257 melanoma, 3.28 µM; in the test with MALME-3M melanoma it was 4.06 µM. For the same compound, the concentration for total growth inhibition (TGI) in the test on NCI-H23 lung was 7.15 µM; with HOP-92 NSCLC, 21.5 µM; in the test with SW-620 colon, 5.86 µM; in the test on NCI-H460 lung, 12.2 µM.
As to `Nc1ccc(C(OC(=O)c2cc3ccccc3c(Cc3c(O)c(C(=O)OC(c4ccc(N)cc4)(c4ccc(N)cc4)c4ccc(N)cc4)cc4ccccc34)c2O)(c2ccc(N)cc2)c2ccc(N)cc2)cc1`, the GI50 is 1.83 µM in the test on RXF 393 renal; 1.76 µM in the test with NCI-H226 lung; 1.41 µM in the test on LOX IMVI melanoma; 0.362 µM with SF-539 CNS; 0.426 µM in the test with UACC-257 melanoma; 1.94 µM in the test with MALME-3M melanoma. The GI50 in the test with NCI-H23 lung is 0.645 µM; in the test with HOP-92 NSCLC it was 1.15 µM; with SW-620 colon, 1.14 µM; with NCI-H460 lung, 0.728 µM. The total growth inhibition concentration (TGI) with RXF 393 renal was found to be 6.7 µM; in the test with NCI-H226 lung, 15.7 µM; in the test with LOX IMVI melanoma, 43.4 µM; with SF-539 CNS it was 14.2 µM; in the test on UACC-257 melanoma, 5.96 µM; in the test on MALME-3M melanoma it was 20.1 µM. In addition, the TGI with NCI-H23 lung turned out to be 17.3 µM; with HOP-92 NSCLC, 5.86 µM; in the test on SW-620 colon it was 13.9 µM; in the test on NCI-H460 lung it was 7.24 µM.
Regarding `O=C1C(=O)N(c2nccs2)C(=O)C(=O)C1c1nc2ccccc2s1`, the total growth inhibition concentration (TGI) in the test with RXF 393 renal, in the test with NCI-H226 lung, with LOX IMVI melanoma, with SF-539 CNS, with UACC-257 melanoma and with MALME-3M melanoma was > 100 µM each time. The TGI in the test with NCI-H23 lung, with HOP-92 NSCLC, in the test with SW-620 colon and with NCI-H460 lung was > 100 µM each time.
